PMC8176454, “Synthesis and Assessment of Novel Probes for Imaging Tau Pathology in Transgenic Mouse and Rat Models” (ACS Chemical Neuroscience, 2021)

Tests used:
[1] = biological target: T1, heparin-induced synthetic recombinant tau fibrils (tau-441 human) (Homo sapiens, UniProt P10636); experiment: Fluorescence quenching assay of compound binding to heparin-induced synthetic recombinant tau fibrils; conditions: read-out: Kd of compound binding to heparin-induced synthetic tau fibrils determined by fluorimetry
T1 construct: purchased Eurogentec
Protocol: All compounds were assessed for their ability to bind to synthetic recombinant tau fibrils using a fluorescence quenching assay[20] […] Binding affinities for some compounds (141, 164, 166, 169, 171, and 207) could not be assessed with this assay because of negligible changes in fluorescence intensity. […] This compound was then selected for further characterization and development.
All reagents and solvents were used as supplied or purified using standard procedures as necessary. Analytical separation was conducted on an Ultimate 3000 HPLC system (Thermo Scientific). [^11C]CO2 was produced via the ^14N(p,α) nuclear reaction using GE PETtrace cyclotron applying 16.5 MeV protons onto 0.5% oxygen in nitrogen gas. [^11C]Methyl iodide was synthesized on a GE Medical Systems MeI MicroLab. A F-4500 FL spectrophotometer (Chemical Engineering department, University of Cambridge) was used to do fluorescence scan of all of the compounds mixed with tau fibrils. Excitation wavelength was 365 nm, and emission was scanned from 400 to 600 nm. With parameters, setting excitation slit was 5.0 nm, emission slit was 20.0 nm, PMT voltage was 950 V, and response was 0.5 s.
Monomeric tau (tau-441 human) lyophilized powder was obtained from Eurogentec. Tau monomers (100 μM) were prepared in 20 mM BES buffer (pH 7.4 with 25 mM NaCl and 2 mM dithiothreitol and incubated at 56 °C for 10 min. After being cooled to room temperature in a water bath, heparin (25 μM) and a protease inhibitor mix were added and incubated at 37 °C for 10 days. […]
Binding affinity of all compounds with tau fibrils […]
All other compounds binding affinit ies towards tau fibrils
were then tested by fluorescent binding assay. […]

[2] = biological target: tau fibrils; parameters: method as in PMID 28087578; conditions: read-out: Kd, previously reported value; cited from earlier work
[3] = test system: tau aggregates in DRG neurons from P301S tau mice; experiment: Fluorescence binding to cultured DRG neurons from P301S tau transgenic mice; format: cell-based, mouse; conditions: IC50 could not be derived because of low affinity
Protocol: P301S tau mice with aggregated tau in the brain also express aggregated tau in DRG neurons.[24]−[26] […] To estimate the apparent affinity of LM229 to tau aggregates directly in living neurons, we imaged live neurons after 20 min incubation with various concentrations of LM229 (Figure 4A). […] LM229 binding was specific to neurons with aggregated tau, as detected with the AT100 antibody[18],[22],[23],[26] (Figure 4D). […] Although PBB3 also bound to DRG neurons with tau aggregates at 30–100 μM, it was not possible to derive an IC50 value because of its low affinity in this assay (Supporting Information, Figure S2). […] The shift from nanomolar to micromolar affinity between binding to heparin tau fibrils and tau aggregates in P301S tau neurons may reflect the different environment and assay conditions or the different conformations that tau aggregates assume in neurons compared to heparin–tau complexes.[27]
Neurons were prepared from phenotypic end stage 5–7 month old P301S tau mice and cultured as described previously.[24] For live staining, neurons cultured for 2 days were washed in PBS and incubated with various concentrations of LM229 for 20 min at room temperature. After three washes in PBS, neurons were imaged on a Leica DMI 4000B microscope using a DFC3000 G camera and application suite 4.0.0.11706. The dead cell stain Propidium iodide (1 μg/mL) was added to ensure that only live cells were imaged. Phase contrast images were taken to show viable neurons. For fixed cell staining, neurons were fixed for 20 min at room temperature in 4% paraformaldehyde, washed in PBS, and permeabilized in PBS containing 0.3% Triton X-100. LM299 was added as described for live cells, and cells were probed with AT100 (1:1000, MN1060) followed by anti-mouse AlexaFluor568 secondary antibody. Cultures were co-stained with the nuclear dye DAPI (blue) to reveal total cells. […]
(§1) Binding to cultured neurons from P301S tau transgenic mice
(§2) DRG were incubated with the indicated concentrations of LM229 or PBB3 for 20 minutes at room temperature, washed 3 times in PBS, and imaged on a Leica DMI 4000B microscope using a Leica DFC3000 G camera and the Leica application suite 4.0.0.11706. Fluorescence intensity was measured in 10-16 neurons each from 3 independent cultures using Image J (imagej.nih.gov/ij/). Results shown are mean ± SD. Non linear least squares curve fitting was applied using http://faculty.gvsu.edu/carlsont/232lab/nonlin2.html. No Km value was […]
Figure S2: Binding of LM229 and PBB3 to DRG neurons with tau aggregates […]
(1 picture or pasted object on this page, not shown here)

[4] = biological target: T2, 3R tau151-391 aggregates in cortical sections from SHR24 rats (Homo sapiens, UniProt P10636); experiment: Binding to SHR24 transgenic rat brain sections; conditions: 50 μM, colocalization with AT8
T2 construct: tissue AXON Neuroscience; host or cells: brain (cortex) sections of SHR24 transgenic rats
Text: (§3) Since future PET studies for development of these compounds would require kinetic modeling for their assessment in vivo, we tested their performance in tau transgenic rats. Rat brains and blood volumes are about 6- and 10-fold larger, respectively, than those of mice and thus enable higher resolution imaging and ample volume for repeated blood sampling. We used two transgenic rat lines expressing human-truncated tau comprising the proline-rich region and either three microtubule binding domains (3R tau151-391, SH24)[28] or four microtubule binding domains (4R tau151-391, SHR72).[29] […] However, compared to the SHR24 rat brain sections, there were less inclusions detected, which seems to indicate the compounds have preferential binding toward the three repeat forms of tau in these rat models.
(§4) Fresh frozen rat brain coronal sections (10 μm) were stored on slides at −80 °C until use. Sections were fixed in ice cold acetone for 10 min and air-dried and then rehydrated twice for 5 min with buffer (10 mM PBS with 0.1% Triton X-100) before application of 5% bovine serum albumin for 1 h and two more 5 min buffer washes. Primary monoclonal antibody AT8 (Thermo MN1020, 1:1000) was added overnight at 4 °C, followed by 1 h incubation with a mixture of secondary AlexaFluor555 goat anti-mouse antibody (1:1000) and 50 μM PBB3 or LM229 in 50:50 ethanol/buffer. Following two 5 min washes in buffer, the slides were air-dried and cover-slipped using Fluorsave before analysis. The green autofluorescence of PBB3 and LM229 was visualized using a 488 nm filter and fluorescence of AT8 using a 568 nm filter on a Leica DM6000 microscope.

[5] = test system: 3R tau151-391 aggregates in cortical sections from SHR24 rats; experiment: Binding to SHR24 transgenic rat brain sections; conditions: SHR24 (3R) vs SHR72 (4R) brain tissue
Text: as §3, §4

[6] = biological target: T3, 4R tau151-391 aggregates in brainstem sections from SHR72 rats (Homo sapiens, UniProt P10636); experiment: Binding to SHR72 transgenic rat brain sections; conditions: 50 μM, colocalization with AT8
T3 construct: tissue AXON Neuroscience; host or cells: brain (brainstem) sections of SHR72 transgenic rats
Text: as §3
Fresh frozen rat brain coronal sections (10 μm) were stored on slides at −80 °C until use. Sections were fixed in ice cold acetone for 10 min and air-dried and then rehydrated twice for 5 min with buffer (10 mM PBS with 0.1% Triton X-100) before application of 5% bovine serum albumin for 1 h and two more 5 min buffer washes. […] The green autofluorescence of PBB3 and LM229 was visualized using a 488 nm filter and fluorescence of AT8 using a 568 nm filter on a Leica DM6000 microscope.

[7] = biological target: T4, tau aggregates in brain of P301S tau mice (Homo sapiens, UniProt P10636, P618S); experiment: Ex vivo mouse study: i.v. injection, brain sections imaged after 1 h; format: in vivo; conditions: i.v. injection 1 h prior, colocalization with AT8
T4 construct: from tissue; host or cells: brain of transgenic P301S tau mice (C57Bl/6 background)
Protocol: We next looked at the ability of LM229 to cross the blood–brain barrier (BBB), a key property of any viable neuro-radiotracer. LM229 was injected intravenously (i.v.) (1 mg/kg weight), and after 1 h, WT and P301S tau mice were perfused-fixed and brain sections were imaged under a fluorescence microscope. […] However, we await a comparison of PBB3 and LM229 by PET imaging to determine their relativity properties as in vivo imaging probes.
Mice were injected intravenously (i.v.) with 50 μM LM229 or PBB3 (DMSO) diluted in 50:50 ethanol/PBS. Animals were then perfused (4% PFA) 1 h post-i.v.

[8] = In vivo PET studies in wild-type and P301S tau mice; parameters: species or system mouse; conditions: for Maximum brain uptake (%ID/g max): whole brain
Text: We then performed preliminary in vivo PET studies with [^11C]L229 in both WT and transgenic P310S tau mice. […] Further PET studies are required to fully characterize the in vivo pharmacokinetics of the radiotracer in both mice and rats.
These studies were regulated under the Animals (Scientific Procedures) Act 1986 Amendment Regulations 2012 following ethical review by the University of Cambridge Animal Welfare and Ethical Review Body (AWERB). The mice were anesthetized with 5% isoflurane, and general anesthesia was maintained using 1.5% isoflurane. The anesthetized mice were placed prone on the bed of a microPET Focus-220 scanner (Concorde Microsystems, Knoxville, TN). Body temperature was maintained at 37 °C using a heating blanket connected to a rectal thermistor probe. Blood oxygen saturation as well as heart rate and breathing rate were monitored and maintained within normal limits using a noninvasive mouseOX pulse-oximeter sensor (Starr Life Science Corp., Oakmont, PA) attached to the thigh. Before the injection of a tracer, a transmission scan was performed with a 68Ge point source for attenuation and scatter correction of 511 keV photons. [^11C]LM229 was injected via the tail vein over 30 s, followed by a 15 s heparin–saline flush. Dynamic data were acquired in list mode for 90 min. Data were subsequently Fourier rebinned in following time frames: 12 × 5 s, 6 × 10 s, 3 × 20 s, 4 × 30 s, 5 × 60 s, 10 × 120 s, 12 × 5 min. Corrections were applied for randoms, dead time, normalization, attenuation, and decay. Fourier rebinning was used to compress the 4D sinograms to 3D before reconstruction with a 2D-filtered back projection with a Hann window cutoff at the Nyquist frequency. The image voxel size was 0.95 × 0.95 × 0.80 mm, with an array size of 128 × 128 × 95.
Three-dimensional volumes of interest (VOIs) for mice brain MRI template available on PMOD software (version 3.8; PMOD technologies, Zurich, Switzerland) were modified to obtain a whole brain VOI. […] The results were expressed as % injected dose per gram, assuming a specific gravity of 1 g·mL^–1 for brain tissue.

[9] = test system: tau pathology in PS19 tau transgenic mice; parameters: method as in PMID 24050400; conditions: cited from earlier work
[10] = test system: brainstem of P301S tau mice; parameters: method as in PMID 29930508; conditions: P301S tau mice vs WT; cited from earlier work
[11] = test system: tau tangles in transgenic mice expressing mutant human P301L tau; parameters: method as in PMID 27030397, PMID 23411393; conditions: in vitro and microPET in vivo imaging; cited from earlier work
[12] = biological target: T5, tau fibrils (Homo sapiens, UniProt P10636); experiment: Microscale thermophoresis screen for interaction with tau fibrils; format: binding; conditions: 1 µM and 1 nM compound mixed with 100 nM tau fibrils
T5 construct: purchased Eurogentec
Protocol: buffer) for 1 h at room temperature. Following 3 washes in PBS/0.1% Triton X-100, 50 µM LM229 (diluted in 1:1 blocking buffer/ethanol) was then added for 1 h at room temperature. Nuclei were stained with DAPI (0.1mg/ml for 10 min), washed and tissues mounted in FluorSaveTM prior to analysis using fluorescence […]
Binding affinity of all compounds with tau fibrils
Microscale Thermophoresis was first used to screen whether there were interaction between the compounds and tau fibrils. For this procedure 200 µL, 5 µM tau fibrils were mixed with 200 µL, 10 µM NT647-NHS dye and then incubated in dark for 30 minutes. Further dialysis (18 hours, changing the buffer after the first 4 hours) was used to remove the free dye giving a 2.5 µM solution of label led protein. The label ling ratio of dye unit per tau monomer was then tested by a method recommended by the instrument manufacturer, NanoTemper Technologies, which is based on a cal ibration curve. The 2.5 µM tau fibril solution was then aliquoted prior to use. The unused samples were frozen at -20 °C. MST measurements were conducted using Monolith NT.115 instrument (NanoTemper Technologies, Germany) at 25 °C. Assays were conducted at 40 % MST Power and 90 % IR-laser power. With each compound, two concentrations (1µM and 1nM) were used to mix with 100nM tau fibrils and then loaded to the MST instrument to read out the MST data curve. Only three compounds 166, 164 […]
All other compounds binding affinit ies towards tau fibrils were then tested by fluorescent binding assay.
as §1
as §2, with “http://faculty.gvsu.edu/carlsont/232lab/nonlin2.html.” for “http://faculty.gvsu.edu/carlsont/232lab/nonlin2.html. No Km value was”

T5 sequence (P10636 1-441 isoform P10636-8): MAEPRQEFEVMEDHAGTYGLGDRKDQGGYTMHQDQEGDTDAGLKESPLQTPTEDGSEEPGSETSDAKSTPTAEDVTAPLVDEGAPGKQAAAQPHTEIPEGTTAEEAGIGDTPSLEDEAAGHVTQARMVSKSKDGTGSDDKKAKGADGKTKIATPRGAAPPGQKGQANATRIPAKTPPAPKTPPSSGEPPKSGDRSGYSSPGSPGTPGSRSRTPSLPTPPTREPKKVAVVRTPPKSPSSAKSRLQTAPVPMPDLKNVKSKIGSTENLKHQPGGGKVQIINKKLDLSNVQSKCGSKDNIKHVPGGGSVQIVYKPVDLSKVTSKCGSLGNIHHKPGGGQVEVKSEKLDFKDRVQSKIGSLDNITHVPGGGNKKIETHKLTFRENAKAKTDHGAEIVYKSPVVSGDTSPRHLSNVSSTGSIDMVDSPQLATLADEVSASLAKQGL
T1 sequence (P10636 1-441 isoform P10636-8): as above
T3 sequence (P10636 468-708): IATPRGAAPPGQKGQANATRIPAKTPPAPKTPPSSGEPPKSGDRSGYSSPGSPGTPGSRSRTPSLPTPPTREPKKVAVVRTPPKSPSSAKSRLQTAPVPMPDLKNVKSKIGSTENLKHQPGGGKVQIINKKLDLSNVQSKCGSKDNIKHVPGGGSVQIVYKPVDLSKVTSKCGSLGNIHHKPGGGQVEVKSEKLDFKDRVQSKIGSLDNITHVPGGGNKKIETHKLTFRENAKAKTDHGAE
T4 sequence (P10636 1-383 isoform P10636-6 P243S): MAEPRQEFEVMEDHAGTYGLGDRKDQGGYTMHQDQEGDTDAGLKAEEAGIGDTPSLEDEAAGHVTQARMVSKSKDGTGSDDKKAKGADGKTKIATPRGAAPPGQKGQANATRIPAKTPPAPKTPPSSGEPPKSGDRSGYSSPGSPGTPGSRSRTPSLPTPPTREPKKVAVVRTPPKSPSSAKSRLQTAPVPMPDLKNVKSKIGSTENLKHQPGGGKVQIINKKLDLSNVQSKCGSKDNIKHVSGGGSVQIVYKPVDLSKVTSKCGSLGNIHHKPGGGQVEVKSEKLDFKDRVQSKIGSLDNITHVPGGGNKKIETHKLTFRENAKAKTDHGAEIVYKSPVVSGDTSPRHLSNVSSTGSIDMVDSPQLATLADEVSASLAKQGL
T2 sequence (P10636 151-360 isoform P10636-5): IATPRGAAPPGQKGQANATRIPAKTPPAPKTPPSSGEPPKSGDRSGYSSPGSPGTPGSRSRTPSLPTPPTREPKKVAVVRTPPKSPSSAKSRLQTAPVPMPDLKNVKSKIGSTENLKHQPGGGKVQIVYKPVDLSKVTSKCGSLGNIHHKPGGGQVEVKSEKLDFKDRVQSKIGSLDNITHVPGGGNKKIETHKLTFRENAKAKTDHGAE

CNc1ccc(/C=C/C=C/c2nc3ccc(O)cc3s2)cn1 [PBB3, reference compound]
Kd [1]: 0.0014 µM
Kd [2]: 0.0013 µM
Concentration at which binding to DRG neurons with tau aggregates was seen [3]: 30 to 100 µM
Binding to pathological aggregated tau in SHR24 rat brain sections [4]: bound with similar properties to pathological aggregated tau
Preference between 3R and 4R tau inclusions in rat models [5]: preferential binding toward the 3R tau inclusions
Binding to tau in SHR72 rat brain sections [6]: bound to tau in brain sections from SHR72 rats
Ex vivo binding in P301S tau brain tissue [7]: significant nonspecific binding

[11CH3]Nc1ccc(/C=C/C=C/c2nc3cc(F)c(O)cc3s2)cn1 [[^11C]LM229]
Maximum brain uptake (%ID/g max) ([8]; P301S mouse): 2.38 %ID/g
Time of maximum brain uptake ([8]; WT and P301S mice): within the first minute
Maximum brain uptake (%ID/g max) ([8]; WT mouse): 1.56 %ID/g

[11CH3]Nc1ccc(/C=C/C=C/c2nc3ccc(O)cc3s2)cn1 [[^11C]PBB3]
Binding to tau pathology in PS19 tau transgenic mice [9]: bind to tau pathology

[18F]c1ccc(-c2ccc3c(c2)[nH]c2ccncc23)cn1 [[^18F]T807]
Difference in retention in brainstem compared to control WT mice [10]: no more than 23%
Specific binding to tau tangles in P301L tau mice [11]: no specific binding

Oc1ccc2nc(/C=C/C=C/c3ccc(F)nc3)sc2c1 [compound 148]
Kd [1]: 0.056 µM

Oc1ccc2nc(/C=C/C=C/c3ccc(F)cn3)sc2c1 [compound 152]
Kd [1]: 0.353 µM

Fc1ccc(/C=C/C=C/c2nc3ccccc3s2)nc1 [compound 164]
Change of the MST data curve [12]: no changes

Oc1ccc2sc(/C=C/C=C/c3ccc(F)cn3)nc2c1 [compound 166]
Change of the MST data curve [12]: no changes

Fc1ccc(/C=C/C=C/c2nc3ccccc3s2)cn1 [compound 169]
Change of the MST data curve [12]: no changes

CNc1ccc(/C=C/C=C/c2nc3cc(F)c(OC)cc3s2)cn1 [compound 225]
Kd [1]: 0.0011 µM

CNc1ccc(/C=C/C=C/c2nc3cc(OCCF)ccc3s2)cn1 [compound 236]
Kd [1]: 0.454 µM
